Test results reported in PMC6957263 (Bioorganic & medicinal chemistry letters, 2013).

Key:
[1] = biological target: T1, human TRPV1 heterologously expressed in CHO cells (Homo sapiens, UniProt Q8NER1); experiment: functional 45Ca2+ uptake assay; format: cell-based
[2] = biological target: T1, human TRPV1 heterologously expressed in CHO cells; experiment: binding competition assay with [3H]RTX; conditions: for fold greater potency than the racemate in binding affinity: 2R vs 2, 3R vs 3; for fold less potent than the racemate in binding affinity: 2S vs 2, 3S vs 3
[3] = human TRPV1, within ca. x-fold of RTX

T1 sequence (Q8NER1 whole entry): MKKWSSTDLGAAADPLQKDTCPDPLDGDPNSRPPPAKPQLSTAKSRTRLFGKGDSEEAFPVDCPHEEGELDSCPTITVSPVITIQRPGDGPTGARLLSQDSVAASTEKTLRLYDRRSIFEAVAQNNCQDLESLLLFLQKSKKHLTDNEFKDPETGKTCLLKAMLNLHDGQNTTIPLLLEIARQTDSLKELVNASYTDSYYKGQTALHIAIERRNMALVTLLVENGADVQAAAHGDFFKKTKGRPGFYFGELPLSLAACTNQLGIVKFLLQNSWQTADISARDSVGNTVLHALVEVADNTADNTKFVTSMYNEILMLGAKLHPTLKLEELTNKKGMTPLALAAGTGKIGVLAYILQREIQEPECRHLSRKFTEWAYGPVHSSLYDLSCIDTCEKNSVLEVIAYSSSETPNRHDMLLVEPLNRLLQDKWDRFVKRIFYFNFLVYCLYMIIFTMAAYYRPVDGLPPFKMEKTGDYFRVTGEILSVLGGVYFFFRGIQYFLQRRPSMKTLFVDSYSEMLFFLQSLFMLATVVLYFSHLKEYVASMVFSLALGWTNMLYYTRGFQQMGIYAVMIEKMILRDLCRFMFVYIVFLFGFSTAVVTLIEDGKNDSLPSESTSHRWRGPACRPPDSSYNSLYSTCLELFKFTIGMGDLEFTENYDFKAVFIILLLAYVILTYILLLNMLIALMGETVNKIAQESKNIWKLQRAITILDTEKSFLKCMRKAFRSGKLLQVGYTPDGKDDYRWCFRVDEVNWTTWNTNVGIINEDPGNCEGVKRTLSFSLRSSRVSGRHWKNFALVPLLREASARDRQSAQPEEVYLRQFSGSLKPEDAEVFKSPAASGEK

Question: With `COc1cc(CNC(=S)NC[C@H](COC(=O)C(C)(C)C)Cc2ccc(C(C)(C)C)cc2)ccc1O` [Compound 2R] as the compound, how does the “fold greater potency than the racemate 2 in agonism” value ([1]; hTRPV1) read?
Answer: 1.5 fold

Question: What about the “fold greater potency than the racemate in binding affinity” value ([2]; hTRPV1) of the same compound?
Answer: 2 fold

Question: Which results are given for `COc1cc(CNC(=S)NC[C@@H](COC(=O)C(C)(C)C)Cc2ccc(C(C)(C)C)cc2)ccc1O` [Compound 2S]?
Answer: fold less potent than 2 in agonism ([1]; hTRPV1): 7 fold; fold less potent than the racemate in binding affinity ([2]; hTRPV1): 1.1 fold

Question: Which “fold of the potency of RTX in agonism” value [1, 3] does the source give for `COc1cc(CNC(=S)NCC(COC(=O)C(C)(C)C)Cc2ccc(C(C)(C)C)cc2)ccc1O` (stereo not drawn) [Compound 2] here?
Answer: ~1.5 fold

Question: And the “fold of the potency of RTX in binding affinity” value [2, 3]?
Answer: ca. 5 fold

Question: With `CC(C)(C)C(=O)OC[C@@H](CNC(=S)NCc1ccc(NS(C)(=O)=O)c(F)c1)Cc1ccc(C(C)(C)C)cc1` [Compound 3R] as the compound, how does the “fold greater potency than 3 in antagonism” value ([1]; hTRPV1) read?
Answer: 1.3 fold

Question: And the “fold greater potency than the racemate in binding affinity” value ([2]; hTRPV1)?
Answer: 1.3 fold

Question: What does the source list for `CC(C)(C)C(=O)OC[C@H](CNC(=S)NCc1ccc(NS(C)(=O)=O)c(F)c1)Cc1ccc(C(C)(C)C)cc1` [Compound 3S]?
Answer: fold less potency compared to 3 in antagonism ([1]; hTRPV1): 1.3 fold; fold less potent than the racemate in binding affinity ([2]; hTRPV1): 3 fold

Question: For `CC(C)(C)C(=O)OCC(CNC(=S)NCc1ccc(NS(C)(=O)=O)c(F)c1)Cc1ccc(C(C)(C)C)cc1` (stereo not drawn) [Compound 3], which “fold less potent than I-RTX in antagonism” value ([1]; hTRPV1) is on record?
Answer: ~20 fold

Question: And the “fold less potent than I-RTX in binding affinity” value ([2]; hTRPV1)?
Answer: ca. 2 fold
